The source of these data is ChEMBL document CHEMBL1649222, “In vitro antibacterial activity of acyl-lysyl oligomers against Helicobacter pylori” (Antimicrob Agents Chemother, 2009).

Values after ≈ are worked out from the molar mass of the structure shown. Active and inactive are the calls of the source. No cut-off for these calls is given here. Non-standard residues stand in square brackets, D forms with d. Residues, ends and D or L forms follow the SMILES beside them. *: point of attachment. Lauroyl = CCCCCCCCCCCC(=O)*; 12Ado = NCCCCCCCCCCCC(=O)O

Series [1] concerns Helicobacter pylori. The series is described as follows: Antimicrobial activity against Helicobacter pylori G27. Type of series: functional.
The subject of series [2] is Helicobacter pylori. Kind of series: Bactericidal activity against Helicobacter pylori G27 preincubated at 37 degC for 1 hr. It is filed as functional.
The subject of series [3] is Helicobacter pylori. Kind of series: Bactericidal activity against Helicobacter pylori G27 preincubated at 60 degC for 1 hr. It is filed as functional.
Series [4] has as its system Helicobacter pylori. The series is described as follows: Antimicrobial activity against Helicobacter pylori G27 at 2 times MBC by time-kill analysis. It is filed as functional.
The test system of series [5] is Helicobacter pylori. The series is described as follows: Antimicrobial activity against Helicobacter pylori G27 at MBC by time-kill analysis. Type of series: functional.
For series [6], the system named is Helicobacter pylori. The series is described as follows: Antimicrobial activity against Helicobacter pylori 7.13. Type of series: functional.
The subject of series [7] is Helicobacter pylori. The series is described as follows: Antimicrobial activity against Helicobacter pylori J99 at 2 times MBC by time-kill analysis. It is filed as functional.
In series [8] the test system is Helicobacter pylori. The series is described as follows: Antimicrobial activity against Helicobacter pylori J99 at MBC by time-kill analysis. Type of series: functional.
Series [9] can be described thus: Toxicity in horse erythrocytes assessed as hemolytic activity at 0.625 to 40 uM. It is filed as cell-based, Equus caballus. The settings on record: erythrocyte.
Series [10] deals with Helicobacter pylori. The series is described as follows: Bactericidal activity against Helicobacter pylori G27 at pH 4.5. It is filed as functional.
Series [11] has as its system Helicobacter pylori. The series is described as follows: Antimicrobial activity against Helicobacter pylori 7.13 at 2 times MBC by time-kill analysis. It is filed as functional.
Series [12] is described as follows: Antimicrobial activity against Helicobacter pylori 26695. Type of series: functional.
In series [13] the test system is Helicobacter pylori. Kind of series: Bactericidal activity against Helicobacter pylori J99 at 40 uM after 10 hrs. It is filed as functional.
Series [14] has as its system Helicobacter pylori. Kind of series: Bactericidal activity against Helicobacter pylori G27 preincubated at 50 degC for 1 hr. Type of series: functional.
Series [15] deals with Helicobacter pylori. Kind of series: Antimicrobial activity against Helicobacter pylori J99. Type of series: functional.
In series [16] the test system is Helicobacter pylori. The series is described as follows: Bactericidal activity against Helicobacter pylori G27 preincubated at 95 degC for 1 hr. It is filed as functional.
Series [17] relates to Helicobacter pylori. Kind of series: Antimicrobial activity against Helicobacter pylori SS1. It is filed as functional.
Series [18] relates to Helicobacter pylori. Kind of series: Antimicrobial activity against Helicobacter pylori 7.13 at MBC by time-kill analysis. Type of series: functional.
Series [19] deals with Helicobacter pylori. Kind of series: Bactericidal activity against Helicobacter pylori 7.13 at 40 uM after 10 hrs. Type of series: functional, organism-based.
Series [20] deals with Helicobacter pylori. Kind of series: Bactericidal activity against Helicobacter pylori G27 preincubated at 55 degC for 1 hr. Type of series: functional.
The subject of series [21] is Helicobacter pylori. The series is described as follows: Bactericidal activity against Helicobacter pylori G27 at pH 6.9. Type of series: functional.
The subject of series [22] is Helicobacter pylori. The series is described as follows: Bactericidal activity against Helicobacter pylori G27 preincubated at 4 degC for 1 hr. It is filed as functional.
The test system of series [23] is Helicobacter pylori. Kind of series: Bactericidal activity against Helicobacter pylori G27 at 40 uM after 10 hrs. It is filed as functional.
For series [24], the system named is Helicobacter pylori. The series is described as follows: Bactericidal activity against Helicobacter pylori G27 preincubated at 42 degC for 1 hr. Type of series: functional.
The nature of series [25]: Toxicity in horse erythrocytes assessed as hemolytic activity at 80 uM. It is filed as cell-based, Equus caballus. The settings on record: erythrocyte.
In series [26] the test system is Helicobacter pylori. Kind of series: Antimicrobial activity against Helicobacter pylori HPAG1. Type of series: functional.

What is called MBC is the lowest tested concentration that kills the bacteria rather than only halting them. As a reminder, the MIC is the lowest concentration found to suppress growth. Lower therefore signals inhibition by little substance. On to `CCCCCCCCCCCC(=O)N[C@@H](CCCCN)C(=O)NCCCCCCCC(=O)N[C@@H](CCCCN)C(=O)NCCCCCCCC(=O)N[C@@H](CCCCN)C(=O)NCCCCCCCC(=O)N[C@@H](CCCCN)C(=O)NCCCCCCCC(=O)N[C@@H](CCCCN)C(=O)NCCCCCCCC(=O)N[C@@H](CCCCN)C(N)=O`, for which, in series [1], the minimum bactericidal concentration (MBC) was over 100 µM and the minimal inhibitory concentration (MIC) is 25 µM (≈ 41.9 µg/mL).

In the case of `CCCCCCCCCCCC(=O)N[C@@H](CCCCN)C(=O)N[C@@H](CCCCN)C(=O)NCCCCCCCCCCCC(=O)N[C@@H](CCCCN)C(=O)N[C@@H](CCCCN)C(=O)NCCCCCCCCCCCC(=O)N[C@@H](CCCCN)C(N)=O` (Lauroyl-KK[12Ado]KK[12Ado]K-NH2), the result in series [2], in series [3], in [13], in series [14], in [16] and in [19] was Active. In addition, the result in series [20], in [21], in [22], in series [23] and in series [24] was Active. For the same compound, the Time in [4] is 2.7 h; in series [5] it was 6.1 h; in series [7], 1.8 h; in series [8], 3.8 h; in [11] it was 3.5 h; in [18] it was 6.1 h. The MBC stood at 14.5 µM (≈ 17.9 µg/mL) in series [6]; 70 µM (≈ 86.4 µg/mL) in [12]; 20 µM (≈ 24.7 µg/mL) in series [15]; 45 µM (≈ 55.6 µg/mL) in series [17]; 40 µM (≈ 49.4 µg/mL) in [26]; 15 µM (≈ 18.5 µg/mL) in series [1]. The minimal inhibitory concentration (MIC) is under 9 µM in series [6]; 25 µM (≈ 30.9 µg/mL) in series [12]; 10.5 µM (≈ 13 µg/mL) in [15]; 25.5 µM (≈ 31.5 µg/mL) in [17]; 10.5 µM (≈ 13 µg/mL) in series [26]; 6.5 µM (≈ 8.03 µg/mL) in [1]. Moreover, the Activity entry is “Non-toxic” in series [9] and “Toxic” in [25]. Also, the result in series [10] was inactive.

On to `CCCCCCCCCCCC(=O)N[C@@H](CCCCN)C(=O)NCCCCCCCC(=O)N[C@@H](CCCCN)C(=O)NCCCCCCCC(=O)N[C@@H](CCCCN)C(=O)NCCCCCCCC(=O)N[C@@H](CCCCN)C(=O)NCCCCCCCC(=O)N[C@@H](CCCCN)C(=O)NCCCCCCCC(=O)N[C@@H](CCCCN)C(=O)NCCCCCCCC(=O)N[C@@H](CCCCN)C(=O)NCCCCCCCC(=O)N[C@@H](CCCCN)C(N)=O`, for which, in series [1], the minimum bactericidal concentration (MBC) is over 100 µM and inhibition of growth (MIC) required 25 µM (≈ 55.3 µg/mL).
